US20200206233A1 (INTEGRAL BIOSCIENCES PRIVATE LIMITED, priority 2018, published 2020)

These compounds were tested against T1, IDH1 mutant (R132H) (Homo sapiens, UniProt O75874, R132H) (assay: Mutant IDH1-R132H Fluorescence Assay (Resazurin based)). Settings: 10 nM IDH1 R132H, 4 mM α-ketoglutarate, NADPH, 1.5 h at room temperature.
T1 construct: purchased BPS Bioscience 71099-2
Type: biochemical
Procedure: IC50 values of compounds against IDH1 mutant (R132H) was determined by Resazurin based Fluorescence assay. Assays were performed in Buffer (25 mM Tris HCl, 150 mM NaCl, 10 mM MgCl2, 0.03% BSA, 2 mM 1-mercaptoethanol) where total reaction volume was 12.5 μL in low-volume 384-well plates (Cat #4511, Corning). Serially diluted compounds (3-fold) were incubated with cocktail of α-ketoglutarate (4 mM; Cat #75892-25G, Sigma), NADPH ([…]; Cat # N1630-100MG, Sigma) and buffer for 5 min, following IDH1 R132H mutant (10 nM; Cat #71099-2, BPS Bioscience) was added and incubated in dark at room temperature for 1.5 h. After 1.5 h, 6.25 μL detection solution containing Resazurin ([…]; (Cat #62758-13-8, Sigma) and Diaphorase (40 ug/ml; Cat # D2197-300UN, Sigma) in buffer was added and incubated for 15 min. Readings were taken in a Synergy Neo Plate reader (BioTek, Winooski) at single excitation of 540 nm and emission at 590 nm respectively.
The % (percent) activity of test samples was calculated as (Sample−Min)×100/(Max−Min). [Max: DMSO control, complete reaction with enzyme with DMSO and Min: No enzyme with DMSO]. Percent inhibition (100−% activity) was fitted to the “four-parameter logistic model” in XLfit for determination of IC50 values.

T1 sequence (O75874 whole entry R132H): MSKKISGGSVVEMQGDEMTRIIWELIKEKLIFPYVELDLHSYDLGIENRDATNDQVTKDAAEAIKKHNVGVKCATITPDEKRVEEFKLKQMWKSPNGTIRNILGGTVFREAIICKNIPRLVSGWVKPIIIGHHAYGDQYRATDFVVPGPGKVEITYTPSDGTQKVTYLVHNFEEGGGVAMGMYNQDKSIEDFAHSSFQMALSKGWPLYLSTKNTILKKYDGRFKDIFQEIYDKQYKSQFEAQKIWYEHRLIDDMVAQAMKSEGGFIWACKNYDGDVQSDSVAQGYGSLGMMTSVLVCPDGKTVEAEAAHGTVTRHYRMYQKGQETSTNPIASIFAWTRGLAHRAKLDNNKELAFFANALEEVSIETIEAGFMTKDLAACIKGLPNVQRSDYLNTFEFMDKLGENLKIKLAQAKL

Structure (SMILES) | IC50 [µM]
CC[C@H]1COC(=O)N1c1nc(C)nc(NCc2cc3cc(Cl)ccc3[nH]c2=O)n1 [Compound 1.57, (S)-3-(4-((6-chloro-2-oxo-1,2-dihydroquinolin-3-yl)methylamino)-6-methyl-1,3,5-triazin-2-yl)-4-ethyloxazolidin-2-one] | 2.07
CC[C@H]1COC(=O)N1c1nc(C)nc(N[C@@H](C)c2cn3cc(Br)ccc3n2)n1 [Compound 1.47, (S)-3-(4-((S)-1-(6-bromoimidazo[1,2-a]pyridin-2-yl)ethylamino)-6-methyl-1,3,5-triazin-2-yl)-4-ethyloxazolidin-2-one] | 3.18
CC(C)[C@H]1COC(=O)N1c1ncnc(N[C@H](C)c2ccc(Oc3ccccc3)cn2)n1 [Compound 1.18, (S)-4-isopropyl-3-(4-((R)-1-(5-phenoxypyridin-2-yl)ethylamino)-1,3,5-triazin-2-yl)oxazolidin-2-one] | > 30
C[C@@H](Nc1ncnc(N2CCOC2=O)n1)c1ccc(Oc2ccccc2)cc1 [Compound 1.20] | > 30
Cc1nc(N[C@H](C)c2cc3cc(Cl)ccc3[nH]c2=O)nc(N2C(=O)OC[C@@H]2[C@H](C)F)n1 [Compound 1.60, (R)-3-(4-((R)-1-(6-chloro-2-oxo-1,2-dihydroquinolin-3-yl)ethylamino)-6-methyl-1,3,5-triazin-2-yl)-4-((S)-1-fluoroethyl)oxazolidin-2-one] | > 30
CC[C@H]1COC(=O)N1c1nc(C)nc(N[C@@H](C)c2ccc(Oc3cccnc3)cc2)n1 [Compound 1.74, (S)-4-ethyl-3-(4-methyl-6-((S)-1-(4-(pyridin-3-yloxy)phenyl)ethylamino)-1,3,5-triazin-2-yl)oxazolidin-2-one] | > 30
CC[C@H]1COC(=O)N1c1nc(C)nc(N[C@@H](C)c2ccc(OCc3ccccn3)cc2)n1 [Compound 1.62, (S)-4-ethyl-3-(4-methyl-6-((S)-1-(4-(pyridin-2-ylmethoxy)phenyl)ethylamino)-1,3,5-triazin-2-yl)oxazolidin-2-one] | 3.29
CC[C@H]1COC(=O)N1c1nc(C)nc(N[C@H](C)c2cn3cc(Br)ccc3n2)n1 [Compound 1.48, (S)-3-(4-((R)-1-(6-bromoimidazo[1,2-a]pyridin-2-yl)ethylamino)-6-methyl-1,3,5-triazin-2-yl)-4-ethyloxazolidin-2-one] | > 30
CC[C@H]1COC(=O)N1c1nc(C)nc(N[C@H](C)c2ccc(Oc3ccc(F)cc3Br)cc2)n1 [Compound 1.79, (S)-3-(4-((R)-1-(4-(2-bromo-4-fluorophenoxy)phenyl)ethylamino)-6-methyl-1,3,5-triazin-2-yl)-4-ethyloxazolidin-2-one] | 2.72
CC[C@H]1COC(=O)N1c1nc(C)nc(N[C@@H](C)c2cc(C)c(-c3ccnc(C(F)(F)F)c3)cn2)n1 [Compound 1.54, (S)-4-ethyl-3-(4-methyl-6-((S)-1-(4-methyl-2′-(trifluoromethyl)-3,4′-bipyridin-6-yl)ethylamino)-1,3,5-triazin-2-yl)oxazolidin-2-one] | 1.21
CC[C@H]1COC(=O)N1c1nc(C)nc(N[C@@H](C)c2cc3cc(Cl)cnc3[nH]c2=O)n1 [Compound 1.49, (S)-3-(4-((S)-1-(6-chloro-2-oxo-1,2-dihydro-1,8-naphthyridin-3-yl)ethylamino)-6-methyl-1,3,5-triazin-2-yl)-4-ethyloxazolidin-2-one] | > 30
CC[C@H]1COC(=O)N1c1nc(C)nc(N[C@@H](C)c2ccc(-c3ccc(F)c(C)c3)cn2)n1 [Compound 1.68, (S)-4-ethyl-3-(4-((S)-1-(5-(4-fluoro-3-methylphenyl)pyridin-2-yl)ethylamino)-6-methyl-1,3,5-triazin-2-yl)oxazolidin-2-one] | 1.58
C[C@@H](Nc1ncnc(N2C(=O)OC[C@@H]2C)n1)c1ccc(Oc2ccccc2)cc1 [Compound 1.17, (S)-4-methyl-3-(4-((R)-1-(4-phenoxyphenyl)ethylamino)-1,3,5-triazin-2-yl)oxazolidin-2-one] | > 30
CC[C@H]1COC(=O)N1c1nc(C)nc(N[C@@H](C)c2cc3cc(OC)ccc3[nH]c2=O)n1 [Compound 1.55, (S)-4-ethyl-3-(4-((S)-1-(6-methoxy-2-oxo-1,2-dihydroquinolin-3-yl)ethylamino)-6-methyl-1,3,5-triazin-2-yl)oxazolidin-2-one] | 1.25
CC[C@H]1COC(=O)N1c1nc(C)nc(N[C@@H](C)c2ccc(Oc3ccc(Cl)cc3)nc2OC)n1 [Compound 1.87, (S)-3-(4-((S)-1-(6-(4-chlorophenoxy)-2-methoxypyridin-3-yl)ethylamino)-6-methyl-1,3,5-triazin-2-yl)-4-ethyloxazolidin-2-one] | 8.82
CC(C)[C@H]1COC(=O)N1c1ncnc(N[C@H](C)c2ccc(Oc3ccccc3)cc2)n1 [Compound 1.8, (S)-4-isopropyl-3-(4-((R)-1-(4-phenoxyphenyl)ethylamino)-1,3,5-triazin-2-yl)oxazolidin-2-one] | > 30
CC[C@H]1COC(=O)N1c1nc(C)nc(N[C@H](C)c2ccc(Oc3cccnc3C(F)(F)F)cc2)n1 [Compound 1.80, (S)-4-ethyl-3-(4-methyl-6-((R)-1-(4-(2-(trifluoromethyl)pyridin-3-yloxy)phenyl)ethylamino)-1,3,5-triazin-2-yl)oxazolidin-2-one] | 10.2
CC[C@H]1COC(=O)N1c1nc(C)nc(N[C@H](C)c2cc3cc(OC)ccc3[nH]c2=O)n1 [Compound 1.56, (S)-4-ethyl-3-(4-((R)-1-(6-methoxy-2-oxo-1,2-dihydroquinolin-3-yl)ethylamino)-6-methyl-1,3,5-triazin-2-yl)oxazolidin-2-one] | > 30
CC[C@H]1COC(=O)N1c1nc(C)nc(N[C@H](C)c2ccc(OCc3ccccn3)cc2)n1 [Compound 1.61, (S)-4-ethyl-3-(4-methyl-6-((R)-1-(4-(pyridin-2-ylmethoxy)phenyl)ethylamino)-1,3,5-triazin-2-yl)oxazolidin-2-one] | 17

Next, values leading:

IC50 [µM] | Structure (SMILES)
2.02 | Cc1nc(N[C@@H](C)c2ccc(Oc3ccccc3)cc2)nc(N2C(=O)OCC2(C)C)n1 [Compound 1.110, (S)-4,4-dimethyl-3-(4-methyl-6-(1-(4-phenoxyphenyl)ethylamino)-1,3,5-triazin-2-yl)oxazolidin-2-one]
> 30 | CC[C@H]1COC(=O)N1c1nc(C)nc(N[C@H](C)c2ccc(Nc3ccccc3)cc2)n1 [Compound 1.88, (S)-4-ethyl-3-(4-methyl-6-((R)-1-(4-(phenylamino)phenyl)ethylamino)-1,3,5-triazin-2-yl)oxazolidin-2-one]
13.6 | CC[C@H]1COC(=O)N1c1nc(C)nc(N[C@@H](C)c2ccc3c(-c4ccccc4)cn(C)c3c2)n1 [Compound 1.101, (S)-4-ethyl-3-(4-methyl-6-((S)-1-(1-methyl-3-phenyl-1H-indol-6-yl)ethylamino)-1,3,5-triazin-2-yl)oxazolidin-2-one]
> 30 | CC[C@H]1COC(=O)N1c1nc(C)nc(N[C@H](C)c2ccc(Oc3ccc(Cl)cc3)c(C)n2)n1 [Compound 1.97, (S)-3-(4-((R)-1-(5-(4-chlorophenoxy)-6-methylpyridin-2-yl)ethylamino)-6-methyl-1,3,5-triazin-2-yl)-4-ethyloxazolidin-2-one]
3.83 | CC[C@H]1COC(=O)N1c1nc(C)nc(N[C@@H](C)c2ccc(Oc3ccc(Cl)cc3)c(C)n2)n1 [Compound 1.96, (S)-3-(4-((S)-1-(5-(4-chlorophenoxy)-6-methylpyridin-2-yl)ethylamino)-6-methyl-1,3,5-triazin-2-yl)-4-ethyloxazolidin-2-one]
> 30 | CC[C@H]1COC(=O)N1c1nc(C)nc(N[C@H](C)c2ccc(Oc3ccc4ccccc4c3)cc2)n1 [Compound 1.93, (S)-4-ethyl-3-(4-methyl-6-((R)-1-(4-(naphthalen-2-yloxy)phenyl)ethylamino)-1,3,5-triazin-2-yl)oxazolidin-2-one]
> 30 | CC[C@H]1COC(=O)N1c1nc(C)nc(N[C@H](C)c2ccc(C(=O)Nc3ccccc3)cc2)n1 [Compound 1.102, 4-((R)-1-(4-((S)-4-ethyl-2-oxooxazolidin-3-yl)-6-methyl-1,3,5-triazin-2-ylamino)ethyl)-N-phenylbenzamide]
21.4 | CC[C@H]1COC(=O)N1c1nc(C)nc(N[C@@H](C)c2ccc(CN3CCN(C(C)=O)CC3)cc2)n1 [Compound 1.98, (S)-3-(4-((S)-1-(4-((4-acetylpiperazin-1-yl)methyl)phenyl)ethylamino)-6-methyl-1,3,5-triazin-2-yl)-4-ethyloxazolidin-2-one]
1.27 | CC[C@H]1COC(=O)N1c1nc(C)nc(N[C@@H](C)c2cc3cc(C)ccc3[nH]c2=O)n1 [Compound 1.108, (S)-4-ethyl-3-(4-methyl-6-((S)-1-(6-methyl-2-oxo-1,2-dihydroquinolin-3-yl)ethylamino)-1,3,5-triazin-2-yl)oxazolidin-2-one]
1.42 | CC[C@H]1COC(=O)N1c1nc(C)nc(N[C@@H](C)c2ccc(Nc3ccccc3)cc2)n1 [Compound 1.89, (S)-4-ethyl-3-(4-methyl-6-((S)-1-(4-(phenylamino)phenyl)ethylamino)-1,3,5-triazin-2-yl)oxazolidin-2-one]
